# Experimental data published in patent US11911396B2, “Use of compound in preparation of drug for treating cerebral small vessel disease” (GUANGZHOU CELLPROTEK PHARMACEUTICAL CO., LTD, priority 2017, dated 2024).
# How the values were obtained:
# free hemoglobin = assay: Immunofluorescence of extravascular free hemoglobin in prefrontal cortex brain tissue, acute hypobaric hypoxia model; type: in vivo, cynomolgus monkeys (Macaca fascicularis); settings: 7500 meters for 48 hours, compared with acute hypobaric hypoxia group, FIG. 1
# From the text: FIG. 1. Acute hypobaric hypoxia caused an increase in extravascular distribution of free hemoglobin in the brain tissue of the prefrontal cortex of cynomolgus monkeys (Macaca fascicularis). […] B. MFI (Mean Fluorescence Intensity) was quantified using Nikon NIS-Element software. The statistics of the relative fluorescence intensity of free hemoglobin distributed extravascularly in the brain tissue of cynomolgus monkeys was shown, and one-way ANOVA analysis and Dunnutt's t test were used to perform statistical tests, **, p<0.01, ns, no statistical difference, n=4. NN: Normobaric Normoxia group; HH: Hypobaric Hypoxia group; HH+Triol: Hypobaric Hypoxia with Triol administration group; HH+PROG: Hypobaric Hypoxia with control drug administration group. PROG represents the control drug progesterone.
# The thickness of paraffin sections was 5 μm. For fresh paraffin sections, the sections were dried at 37° C. overnight and then dried at 55° C. for 30 minutes. The sections were quickly placed in xylene for dewaxing. […] NIS-Elements Analysis software was used to analyze the fluorescence intensity of confocal images, which was then normalized with the fluorescence intensity per unit area according to the built-in scale. […]
# TNF-α = assay: Western blot of TNF-α in prefrontal cortex brain tissue, acute hypobaric hypoxia model; type: in vivo, cynomolgus monkeys; settings: FIGS. 3A and 3B
# From the text: FIG. 3. […] A. Protein expression of inflammatory factors IL-6, IL-1β and TNF-α in the brain tissue of the prefrontal cortex of cynomolgus monkeys; B. Statistics of protein relative gray scan values. NN: Normobaric Normoxia group (N=3); HH: Hypobaric Hypoxia group (N=3); HH+Triol: Hypobaric Hypoxia with Triol administration group (N=3); HH+PROG: Hypobaric Hypoxia with control drug administration group (N=3). The gray value was obtained by scanning with Image Lab software, and the relative value was obtained after normalizing with α-Tubulin. One-way ANOVA analysis and Dunnutt's t test were used to perform statistical tests, and in the latter each group was compared with the HH group, *, p<0.05; **, p<0.01.
# 1) Preparation of protein samples (see the instructions of M-PER protein lysate): After the cells had been processed for the specified time, the medium was aspirated and then washed with 4° C. pre-chilled PBS (0.01M pH7.2˜7.3) for 3 times. […] 2) BCA protein quantification (see the instructions of BCA protein quantification kit): corresponding components were added to a 96-well detection plate by the ratio of quantification reagent A solution:B solution:ddH2O:protein=100:2:7.5:5, and albumin standards diluted in gradient concentration were added to draw a standard curve. […] After the reaction, the absorbance of each well at a wavelength of 562 nm was detected using a microplate reader. […]
structure (smiles),measurement,setting,value
"C[C@@]12CCCC1C1C[C@@H](O)[C@@]3(O)C[C@@H](O)CC[C@]3(C)C1CC2 (stereo partly drawn) [Triol, 5α-androst-3β,5,6β-triol]",distribution of extravascular free hemoglobin,free hemoglobin,significantly reduced
same,expression level of TNF-α,TNF-α,significantly reduced
